How the values were obtained:
Format in all cases: cell-based
[1] = test system: Proteus vulgaris; experiment: MIC against Gram-negative bacteria: Proteus vulgaris
In short: (§1)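 Inocula prepared by growing LB cultures at 37° C to 0.5 McFarland, centrifuging at 4000×g, and resuspending in fresh medium. Final density 5×10^5 CFU/mL per well with two-fold dilutions of purified EGF domain protein; shaking incubation at 37° C.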

[2] = test system: Citrobacter diversus; experiment: MIC against Gram-negative bacteria: Citrobacter diversus
In short: as §1

[3] = test system: Moraxella catarrhalis; experiment: MIC against Gram-negative bacteria: Moraxella catarrhalis
In short: as §1

[4] = test system: Serratia marcescens; experiment: MIC against Gram-negative bacteria: Serratia marcescens
In short: as §1

[5] = test system: Pseudomonas aeruginosa; experiment: MIC against Gram-negative bacteria: Pseudomonas aeruginosa
In short: as §1

[6] = test system: Klebsiella pneumonia; experiment: MIC against Gram-negative bacteria: Klebsiella pneumonia
In short: as §1

[7] = test system: E. coli DH5α; experiment: Antibacterial activity: MIC and growth curve against E. coli DH5α in 96-well plate; details: minimal inhibitory concentration against E. coli DH5α; 96-well plate, 5×10^5 CFU/mL, 37° C., judged after 8 h
In short: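 Log-phase bacteria (OD600 ~0.5) resuspended in LB at 5×10^5 CFU/mL, exposed to recombinant protein at 50, 25, 12.5 μg/mL final in triplicate, 37 °C shaking at 175 rpm. OD600 read every 30 min; MIC is lowest concentration showing no growth.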

[8] = test system: Proteus mirabilis; experiment: MIC against Gram-negative bacteria: Proteus mirabilis
In short: as §1

[9] = test system: Enterobacter cloacae; experiment: MIC against Gram-negative bacteria: Enterobacter cloacae
In short: as §1

[10] = test system: E. coli BL21; experiment: MIC against Gram-negative bacteria: E. coli BL21
In short: as §1

[11] = test system: Aeromonas hydrophila; experiment: MIC against Gram-negative bacteria: Aeromonas hydrophila
In short: as §1

[12] = Proteus vulgaris, 5×10^5 CFU/mL, 10 h cultivation at 37° C.
[13] = Citrobacter diversus, 5×10^5 CFU/mL, 10 h cultivation at 37° C.
[14] = Moraxella catarrhalis, 5×10^5 CFU/mL, 10 h cultivation at 37° C.
[15] = Serratia marcescens, 5×10^5 CFU/mL, 10 h cultivation at 37° C.
[16] = Pseudomonas aeruginosa, 5×10^5 CFU/mL, 10 h cultivation at 37° C.
[17] = Klebsiella pneumonia, 5×10^5 CFU/mL, 10 h cultivation at 37° C.
[18] = Proteus mirabilis, 5×10^5 CFU/mL, 10 h cultivation at 37° C.
[19] = Enterobacter cloacae, 5×10^5 CFU/mL, 10 h cultivation at 37° C.
[20] = E. coli BL21, 5×10^5 CFU/mL, 10 h cultivation at 37° C.
[21] = Aeromonas hydrophila, 5×10^5 CFU/mL, 10 h cultivation at 37° C.
[22] = Proteus vulgaris, 96-well plate, 5×10^5 CFU/mL, 37° C., 10 h
[23] = Citrobacter diversus, 96-well plate, 5×10^5 CFU/mL, 37° C., 10 h
[24] = Moraxella catarrhalis, 96-well plate, 5×10^5 CFU/mL, 37° C., 10 h
[25] = Serratia marcescens, 96-well plate, 5×10^5 CFU/mL, 37° C., 10 h
[26] = Pseudomonas aeruginosa, 96-well plate, 5×10^5 CFU/mL, 37° C., 10 h
[27] = Klebsiella pneumonia, 96-well plate, 5×10^5 CFU/mL, 37° C., 10 h
[28] = Proteus mirabilis, 96-well plate, 5×10^5 CFU/mL, 37° C., 10 h
[29] = Enterobacter cloacae, 96-well plate, 5×10^5 CFU/mL, 37° C., 10 h
[30] = E. coli BL21, 96-well plate, 5×10^5 CFU/mL, 37° C., 10 h
[31] = Aeromonas hydrophila, 96-well plate, 5×10^5 CFU/mL, 37° C., 10 h
[32] = 10 h cultivation at 37° C., 5×10^5 CFU/mL, two-fold serial dilution
[33] = 96-well plate, 5×10^5 CFU/mL, 37° C., 10 h

PRT897 (DPNPCLSTPCKNAGTCHVVDRRGVADYACSCALGFSGPLCL; listed as Homo sapiens)
25 µg/mL: MIC ([4]; S. marcescens, 10 h cultivation at 37° C.) | MIC ([8]; P. mirabilis, 10 h cultivation at 37° C.) | MIC ([10]; E. coli BL21, 10 h cultivation at 37° C.)
50 µg/mL: MIC ([3]; M. catarrhalis, 10 h cultivation at 37° C.) | MIC ([6]; K. pneumonia, 10 h cultivation at 37° C.) | MIC [7] | MIC ([11]; A. hydrophila, 10 h cultivation at 37° C.)
12.5 µg/mL: MIC ([1]; P. vulgaris, 10 h cultivation at 37° C.) | MIC ([2]; C. diversus, 10 h cultivation at 37° C.) | MIC ([5]; P. aeruginosa, 10 h cultivation at 37° C.) | MIC ([9]; E. cloacae, 10 h cultivation at 37° C.)

PRT1422 (DVDDCILEPSPCPQRCVNTQGGFECHCYPNYDLVDGECV; listed as Homo sapiens)
50 µg/mL: MIC against P. vulgaris [1, 12] | MIC against M. catarrhalis [3, 14] | MIC against K. pneumonia [6, 17] | MIC against A. hydrophila [11, 21]
12.5 µg/mL: MIC against C. diversus [2, 13] | MIC against S. marcescens [4, 15] | MIC against P. aeruginosa [5, 16] | MIC [7] | MIC against P. mirabilis [8, 18] | MIC against E. cloacae [9, 19] | MIC against E. coli BL21 [10, 20]

PRT126 (IIDRCVPNHCEHGGKCSQTWDSFKCTCDETGYSGATCH; listed as Homo sapiens)
50 µg/mL: MIC (μg/mL) K. pneumonia [6, 27] | MIC (μg/mL) E. coli BL21 [10, 30]
25 µg/mL: MIC (μg/mL) S. marcescens [4, 25] | MIC (μg/mL) P. mirabilis [8, 28]
100 µg/mL: MIC (μg/mL) M. catarrhalis [3, 24]
12.5 µg/mL: MIC (μg/mL) P. vulgaris [1, 22] | MIC (μg/mL) C. diversus [2, 23] | MIC (μg/mL) P. aeruginosa [5, 26] | MIC [7] | MIC (μg/mL) E. cloacae [9, 29] | MIC (μg/mL) A. hydrophila [11, 31]

PRT1433 (PPRRCDSNPCFRGVQCTDSRDGFQCGPCPEGYTGNGITCI; listed as Homo sapiens)
25 µg/mL: MIC against P. mirabilis [8, 18] | MIC against A. hydrophila [11, 21]
12.5 µg/mL: MIC against P. vulgaris [1, 12] | MIC against C. diversus [2, 13] | MIC against M. catarrhalis [3, 14] | MIC against S. marcescens [4, 15] | MIC against P. aeruginosa [5, 16] | MIC against K. pneumonia [6, 17] | MIC [7] | MIC against E. cloacae [9, 19] | MIC against E. coli BL21 [10, 20]

PRT1098 (DIDNCQSHQCANGATCISHTNGYSCLCFGNFTGKFCR; listed as Homo sapiens)
50 µg/mL: MIC S. marcescens [4, 32]
12.5 µg/mL: MIC C. diversus [2, 32] | MIC P. aeruginosa [5, 32] | MIC K. pneumonia [6, 32] | MIC [7] | MIC P. mirabilis [8, 32] | MIC E. cloacae [9, 32] | MIC E. coli BL21 [10, 32]
25 µg/mL: MIC P. vulgaris [1, 32] | MIC M. catarrhalis [3, 32] | MIC A. hydrophila [11, 32]

PRT532 (CWCSALGSYQMPCSSVTGQCECRPGVTGQRCDRCLSGAYDFPHCQGSSSACDP; listed as Homo sapiens)
12.5 µg/mL: MIC against C. diversus [2, 33] | MIC against S. marcescens [4, 33] | MIC against P. aeruginosa [5, 33] | MIC against K. pneumonia [6, 33] | MIC [7] | MIC against P. mirabilis [8, 33] | MIC against E. cloacae [9, 33] | MIC against A. hydrophila [11, 33]
50 µg/mL: MIC against P. vulgaris [1, 33] | MIC against M. catarrhalis [3, 33] | MIC against E. coli BL21 [10, 33]

PRT1304 (ARDPCLGHRCHHGKCVATGTSYMCKCAEGYGGDLCD; listed as Homo sapiens)
25 µg/mL: MIC against P. vulgaris [1, 22] | MIC against M. catarrhalis [3, 24] | MIC against P. aeruginosa [5, 26] | MIC [7] | MIC against A. hydrophila [11, 31]
12.5 µg/mL: MIC against C. diversus [2, 23] | MIC against S. marcescens [4, 25] | MIC against K. pneumonia [6, 27] | MIC against P. mirabilis [8, 28] | MIC against E. cloacae [9, 29] | MIC against E. coli BL21 [10, 30]

From patent publication US9833497B2, “Human originated EGF domain proteins and use of the same” (CHENGDU SOURCEBIO LIMITED-LIABILITY COMPANY, priority 2013, dated 2017)
